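1) Cells in 96-well plates. 2) Compound, 48 h, 5 concentrations. 3) Linear interpolation between surrounding doses. 4) Unreached endpoint = highest concentration. GI50: concentration for 50% inhibition of growth.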 The source made the active and inactive calls. No stated cut-off is given here; in the data, active = GI50 up to about 1.1 µM and inactive = higher. Where a SMILES comes first, the peptide text is derived from it. Bridges are numbered along the chain shown (N, C = ends). [ ]: non-standard residue; d: D form. The star is where a group is joined. ξ: configuration not given here. PhAc = O=C(Cc1ccccc1)*; ξP = O=C(O)C1CCCN1
Experiments:
Test in all cases: NCI-60 cell line screen, 48 h
HCC 2998 = test system: HCC 2998
OVCAR-3 = test system: OVCAR-3
SK-MEL-5 = test system: SK-MEL-5
SF-268 = test system: SF-268
Malme-3M = test system: Malme-3M
OVCAR-5 = test system: OVCAR-5
PC-3 = test system: PC-3
SNB-19 = test system: SNB-19
UACC-257 = test system: UACC-257
MDA-MB-435 = test system: MDA-MB-435
MDA-MB-231 = test system: MDA-MB-231
SNB-75 = test system: SNB-75
HCT-116 = test system: HCT-116
U-251 = test system: U-251
KM12 = test system: KM12
A498 = test system: A498
UACC-62 = test system: UACC-62
HCT-15 = test system: HCT-15
UO-31 = test system: UO-31
M14 = test system: M14

| SMILES | GI50 (HCC 2998) | GI50 (OVCAR-3) | GI50 (SK-MEL-5) | GI50 (SF-268) | GI50 (Malme-3M) | GI50 (OVCAR-5) | GI50 (PC-3) | GI50 (SNB-19) | GI50 (UACC-257) | GI50 (MDA-MB-435) | GI50 (MDA-MB-231) | GI50 (SNB-75) | GI50 (HCT-116) | GI50 (U-251) | GI50 (KM12) | GI50 (A498) | GI50 (UACC-62) | GI50 (HCT-15) [µM] | GI50 (UO-31) | GI50 (M14) |
| --- | --- | --- | --- | --- | --- | --- | --- | --- | --- | --- | --- | --- | --- | --- | --- | --- | --- | --- | --- | --- |
| O=C(CCc1ccc(O)c(O)c1)NCCc1ccc(O)c(O)c1 | > 100 µM (inactive) | 94.2 µM (inactive) | > 100 µM (inactive) | > 100 µM (inactive) | > 100 µM (inactive) | > 100 µM (inactive) | > 100 µM (inactive) | > 100 µM (inactive) | > 100 µM (inactive) | 17.9 µM (inactive) | 25.6 µM (inactive) | > 100 µM (inactive) | 42.8 µM (inactive) | 17.3 µM (inactive) | > 100 µM (inactive) | > 100 µM (inactive) | > 100 µM (inactive) | > 100 | > 100 µM (inactive) | > 100 µM (inactive) |
| C=[N+](CNC(=O)CNC(=O)C(Cc1ccccc1)NC(=O)OC(C)(C)C)C(=O)CNC(=O)C(Cc1ccccc1)NC(=O)OC(C)(C)C (configuration not stated) | > 100 µM (inactive) | > 100 µM (inactive) | > 100 µM (inactive) | > 100 µM (inactive) | > 100 µM (inactive) | > 100 µM (inactive) | > 100 µM (inactive) | > 100 µM (inactive) | > 100 µM (inactive) | > 100 µM (inactive) | > 100 µM (inactive) | > 100 µM (inactive) | > 100 µM (inactive) | – | > 100 µM (inactive) | > 100 µM (inactive) | > 100 µM (inactive) | > 100 | > 100 µM (inactive) | > 100 µM (inactive) |
| O=Cc1c2c(cc3c1CC1(C3)Cc3cc4c(c(C=O)c3C1)CCCC4)CCCC2 | 29.4 µM (inactive) | > 31.6 µM (inactive) | > 31.6 µM (inactive) | > 100 µM (inactive) | > 31.6 µM (inactive) | > 31.6 µM (inactive) | 19.9 µM (inactive) | 98.9 µM (inactive) | > 31.6 µM (inactive) | > 31.6 µM (inactive) | 27.6 µM (inactive) | > 100 µM (inactive) | 20.4 µM (inactive) | > 31.6 µM (inactive) | 21.6 µM (inactive) | > 10 µM (inactive) | > 31.6 µM (inactive) | 19.2 | – | > 31.6 µM (inactive) |
| CC(=O)O[C@@H]1[C@H](C(C)C)[C@@H](OC(C)=O)C/C(C)=C/CC[C@]2(C)O[C@@H]12 | > 100 µM (inactive) | > 100 µM (inactive) | > 100 µM (inactive) | > 100 µM (inactive) | > 100 µM (inactive) | > 100 µM (inactive) | > 100 µM (inactive) | > 100 µM (inactive) | > 100 µM (inactive) | > 100 µM (inactive) | > 100 µM (inactive) | > 100 µM (inactive) | > 100 µM (inactive) | > 100 µM (inactive) | > 100 µM (inactive) | > 100 µM (inactive) | > 100 µM (inactive) | > 100 | > 100 µM (inactive) | > 100 µM (inactive) |
| CC1OC(OC2C(OC3CCC4(C)C(CCC5(C)C4CC=C4C6CC(C)(C)CCC6(C(=O)O)CCC45C)C3(C)CO)OCC(O)C2O)C(O)C(O)C1O (configuration not stated) | 13.4 µM (inactive) | 27.3 µM (inactive) | 17.8 µM (inactive) | 17.1 µM (inactive) | 19.3 µM (inactive) | 19.8 µM (inactive) | 13 µM (inactive) | 15.8 µM (inactive) | 18.5 µM (inactive) | 18.7 µM (inactive) | 17.9 µM (inactive) | 14.2 µM (inactive) | 7.4 µM (inactive) | 21.9 µM (inactive) | 7.1 µM (inactive) | 14.2 µM (inactive) | 8.05 µM (inactive) | 20.9 | 3.66 µM (inactive) | – |
| CNS(=O)(=O)c1ccc2c(c1)/C(=C1/Nc3ccccc3C1=O)C(=O)N2 | > 100 µM (inactive) | > 100 µM (inactive) | 5.2 µM (inactive) | > 100 µM (inactive) | > 100 µM (inactive) | > 100 µM (inactive) | > 100 µM (inactive) | 20.9 µM (inactive) | > 100 µM (inactive) | > 100 µM (inactive) | 2.63 µM (inactive) | > 100 µM (inactive) | > 100 µM (inactive) | 5.04 µM (inactive) | – | > 100 µM (inactive) | > 100 µM (inactive) | 49.4 | > 100 µM (inactive) | > 100 µM (inactive) |
| CCOc1cc(NC(C)=O)ccc1C(=O)NN1C(=O)C(Cl)C1c1ccccc1 (configuration not stated) | 17.4 µM (inactive) | 14.7 µM (inactive) | 10.1 µM (inactive) | 16.7 µM (inactive) | 11.2 µM (inactive) | 17.4 µM (inactive) | 14 µM (inactive) | 15.1 µM (inactive) | 11.9 µM (inactive) | 11.5 µM (inactive) | 13.2 µM (inactive) | 15.6 µM (inactive) | 17.5 µM (inactive) | – | 17.3 µM (inactive) | 17.4 µM (inactive) | 11 µM (inactive) | 16.1 | 3.31 µM (inactive) | 12.4 µM (inactive) |
| C/C(=N\N=C(N)N)c1c(C(=O)OCCCCCCOC(=O)c2nc3sccn3c2/C(C)=N/N=C(N)N)nc2sccn12 | > 100 µM (inactive) | – | 99.1 µM (inactive) | 49.1 µM (inactive) | 43.4 µM (inactive) | > 100 µM (inactive) | > 100 µM (inactive) | 63.8 µM (inactive) | > 100 µM (inactive) | > 100 µM (inactive) | > 100 µM (inactive) | 44.7 µM (inactive) | > 100 µM (inactive) | 37.7 µM (inactive) | > 100 µM (inactive) | > 100 µM (inactive) | > 100 µM (inactive) | > 100 | 69.5 µM (inactive) | > 100 µM (inactive) |
| NNC(=O)c1c(Cl)c(Cl)c(Cl)c(Cl)c1-c1nc2ccccc2[nH]1 | 8.63 µM (inactive) | 6.64 µM (inactive) | 11.2 µM (inactive) | 17.4 µM (inactive) | 14.3 µM (inactive) | 36.7 µM (inactive) | 16.6 µM (inactive) | 19.6 µM (inactive) | 12.6 µM (inactive) | 2.12 µM (inactive) | 21.3 µM (inactive) | 12.5 µM (inactive) | 13.2 µM (inactive) | – | 6.76 µM (inactive) | 15 µM (inactive) | 10.4 µM (inactive) | 5.07 | 19.4 µM (inactive) | 9.55 µM (inactive) |
| Cc1ccc(S(=O)(=O)N/N=C2/C3CC4CCC2C4C3)cc1 (configuration not stated) | > 100 µM (inactive) | > 100 µM (inactive) | > 100 µM (inactive) | > 100 µM (inactive) | > 100 µM (inactive) | > 100 µM (inactive) | > 100 µM (inactive) | – | > 100 µM (inactive) | > 100 µM (inactive) | > 100 µM (inactive) | > 100 µM (inactive) | > 100 µM (inactive) | > 100 µM (inactive) | > 100 µM (inactive) | > 100 µM (inactive) | > 100 µM (inactive) | > 100 | > 100 µM (inactive) | > 100 µM (inactive) |
| Cc1ccc(/N=N/c2c(C)nn(C(=O)CC(=O)Nc3ccc(Cl)cc3)c2C)cc1C | > 100 µM (inactive) | > 100 µM (inactive) | > 100 µM (inactive) | 37.2 µM (inactive) | 85.5 µM (inactive) | 98.2 µM (inactive) | > 100 µM (inactive) | 15.5 µM (inactive) | > 100 µM (inactive) | > 100 µM (inactive) | 24.3 µM (inactive) | 21 µM (inactive) | 49.2 µM (inactive) | 26.6 µM (inactive) | > 100 µM (inactive) | 70.1 µM (inactive) | 79.4 µM (inactive) | – | 37.5 µM (inactive) | > 100 µM (inactive) |
| CSc1nc2c3ccccc3ccn2c1C(=O)N/N=C/c1ccccc1 | > 100 µM (inactive) | 17.9 µM (inactive) | > 74.8 µM (inactive) | 19.7 µM (inactive) | 47.6 µM (inactive) | > 75.5 µM (inactive) | > 100 µM (inactive) | – | > 100 µM (inactive) | > 100 µM (inactive) | 18.1 µM (inactive) | > 42.7 µM (inactive) | 15.5 µM (inactive) | 15.8 µM (inactive) | > 100 µM (inactive) | 31.5 µM (inactive) | > 100 µM (inactive) | > 100 | 21.8 µM (inactive) | > 100 µM (inactive) |
| CCCc1nc(Cl)nc(Cl)c1Cl | 1.08 µM (active) | 0.129 µM (active) | 0.935 µM (active) | 1.85 µM (inactive) | 0.453 µM (active) | 0.817 µM (active) | 0.438 µM (active) | 1.16 µM (inactive) | 0.615 µM (active) | 0.422 µM (active) | 0.665 µM (active) | 1.22 µM (inactive) | 0.259 µM (active) | 0.67 µM (active) | 0.543 µM (active) | 2.87 µM (inactive) | 0.703 µM (active) | 0.0796 | – | 0.336 µM (active) |
| O=C(Cc1ccccc1)N[C@@H]1COC(=O)C2CCCN2C(=O)[C@@H]2CCCN2C1=O (some centres not stated) (PhAc-[dS]-Pro-[ξP]; ester 1-C) | > 100 µM (inactive) | > 100 µM (inactive) | > 100 µM (inactive) | > 100 µM (inactive) | > 100 µM (inactive) | > 100 µM (inactive) | > 100 µM (inactive) | > 100 µM (inactive) | > 100 µM (inactive) | > 100 µM (inactive) | > 100 µM (inactive) | < 0.01 µM (active) | > 100 µM (inactive) | – | > 100 µM (inactive) | > 100 µM (inactive) | > 100 µM (inactive) | > 100 | – | > 100 µM (inactive) |

Reference: ChEMBL document CHEMBL1201862, “PubChem BioAssay data set” (2004)
